Article PMC5698967, “A novel GH10 xylanase from Penicillium sp. accelerates saccharification of alkaline-pretreated bagasse by an enzyme from recombinant Trichoderma reesei expressing Aspergillus β-glucosidase” (Biotechnology for Biofuels, 2017)

Molecular target: T1, PspXyn10 (Penicillium sp., UniProt A0A2Z5XER4)
T1 construct: full-length cDNA (404 residues), predicted signal peptide 1-22 removed on secretion; GH10 (25-336) + CBM1 (372-404); untagged, expressed in Trichoderma reesei C1PX10, purified; 55 kDa on SDS-PAGE; internal peptides LYYNDYNLESAGAK, NHLTNVVTHYK, YAWDVVNEGLNDDGTYR
T1 sequence (A0A2Z5XER4 23-404): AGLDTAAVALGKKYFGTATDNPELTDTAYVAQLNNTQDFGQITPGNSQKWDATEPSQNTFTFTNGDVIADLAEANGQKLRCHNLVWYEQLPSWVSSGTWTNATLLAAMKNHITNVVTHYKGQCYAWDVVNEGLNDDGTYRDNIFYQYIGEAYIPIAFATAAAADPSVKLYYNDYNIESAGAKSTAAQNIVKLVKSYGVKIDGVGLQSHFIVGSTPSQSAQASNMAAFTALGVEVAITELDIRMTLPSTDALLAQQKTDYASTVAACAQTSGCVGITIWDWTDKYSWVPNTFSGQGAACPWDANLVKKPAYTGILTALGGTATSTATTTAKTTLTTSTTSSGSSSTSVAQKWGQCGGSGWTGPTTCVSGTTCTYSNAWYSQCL
Experiment: p-nitrophenol release, absorbance at […] nm
Format: biochemical
Details: 1 mM substrate; 50 mM sodium acetate pH 5.0; 50 °C; 5 min

O=[N+]([O-])c1ccc(O[C@@H]2OC[C@@H](O[C@@H]3OC[C@@H](O)[C@H](O)[C@H]3O)[C@H](O)[C@H]2O)cc1 [pNPX2, p-nitrophenyl xylobioside]
specific activity: enzymatic activity of purified PspXyn10, JN11H, and JNK25H against p-nitrophenyl xylobioside (pNPX2) was assayed
